Source: patent publication US20230355622A1, “METHODS OF CHEMOVACCINATION AGAINST PLASMODIUM INFECTIONS” (Merck Sharp & Dohme LLC, priority 2020, published 2023)

Columns and labels:
PbmCherryLuci = assay: Prime/boost immunisation of C57BL/6 mice with Example 75A, mosquito bite challenge (FIG. 9); format: in vivo, Plasmodium berghei; conditions: female C57BL/6, prime/boost, 2 x 500 mg/kg P.O. at 36 and 48 h; 10 mosquito bites at 12 weeks after prime
Experimental: To investigate if chemoprophylaxis with Example 75A would serve as a chemovaccination as does Example IA, female C57BL/6 mice were immunized using a prime/boost regimen. The first immunisation was with 40,000 PbmCherryLuci salivary gland sporozoites i.v. followed by two doses of Example 75A at 500 mg/kg P.O. (given at 36 and 48 hours post infection). The second immunisation (boost) was six weeks later, this time with 20,000 PbmCherryLuci sporozoites but with Example 75A treatment as for the prime immunisation. Six weeks after the boost immunisation (twelve weeks after the prime immunisation) the immunised mice were challenged with the bites of 10 PbmCherryLuci infected mosquitoes for 15 minutes. Giemsa stained thin blood smears were analysed until day 30 for the presence of parasites in the blood and mice were considered to be protected from infection if no blood parasites were observed within the 30 days post mosquito bite challenge.

parasite = assay: Parasite LDH growth assay (Parasite Assay), antiparasite potency; format: cell-based; conditions: 72 h, parasite LDH growth assay, ring stage parasites, 72 hours incubation at 37° C.; read-out: EC50
In short: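 Growth was read by an LDH assay after a freeze–thaw cycle (−80 °C overnight, 4 h thaw at RT). Before that, parasites grew with compound for 72 h at 37 °C under gassed, humidified conditions. The input was a ring-stage culture adjusted to 0.7% parasitemia and 2% haematocrit in serum (5%)/albumax (0.5%)-supplemented RPMI-Hepes.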

[1] = system: PbmCherryLuci sporozoites; assay: Inhibition of liver to blood transition in C57BL/6 mice (FIG. 8); format: in vivo, Plasmodium berghei
Experimental: 40,000 PbmCherryLuci sporozoites (or the indicated number of sporozoites) were inoculated i.v. and compounds were administered by oral gavage at indicated time points during liver infection. Liver infection levels and egress of parasites from the liver were measured by bioluminescence signal from the parasites using an In Vivo Imaging System (IVIS, Perkin Elmer) at the peak of liver infection (52 hours post infection, hpi), during liver egress (55 hpi) as well as during the first round of blood infection (65 hpi). Initiation of blood infection was also measured by flow cytometry at 65 hpi using the mCherry reporter to determine the parasitemia of this first round of blood infection. These analyses allowed quantification of the efficacy of drug killing of parasites in the liver (52 hpi), preventing their egress from the liver (55 hpi) or preventing their successful infection of the blood (65 hpi). Mice were monitored by giemsa stained thin blood smears for the presence of parasites in the blood for 30 days post infection. If no blood infection was seen during the subsequent 30 days, mice were declared cured of malaria infection.
C57BL/6 mice were administered Example 1A or Example 75A as described in the general experimental procedure.

PMIX [2] = assay: Cleavage of PMIX substrates RAP1 and ASP in parasite extracts; format: cell-based, P. falciparum
Experimental: To confirm that Example 1A was a dual inhibitor of PMIX and PMX function, the ability of this compound to inhibit cleavage of the known PMIX substrate Rhoptry Associated Protein 1 (RAPI) in parasite extracts was tested (Pino et al., 2017). RAP1 is a merozoite rhoptry protein that is localized to the parasitophorous vacuole after invasion and processed by both PMIX and SUB1 (Pino et al., 2017). […] RAP1 was not released into the parasite supernatant because it was deposited in the parasitophorous vacuole during the invasion process (Baldi, D., Andrews, K., Waller, R., Roos, D., Howard, R., Crabb, B. and Cowman, A. (2000)). RAP1 controls rhoptry targeting of RAP2 in the malaria parasite Plasmodium falciparum. Embo Journal 19, 2435-2443.

PMIX [3] = assay: Autocatalytic processing of PMIX to p55; format: cell-based; conditions: P. falciparum parasite
Excerpt: The development of Example 1A as a PMIX/PMX dual inhibitor of the P. falciparum parasite has allowed for the analysis of the function of these aspartic acid proteases. To do this, PMIX was processed to a 55 kDa (p55) protein and this was not inhibited by E64.

PMX = PMX (Plasmodium falciparum, UniProt Q8IAS0); parameters: endogenous in cells; conditions: negative control, literature (Salmon et al. 2001); cited from earlier work
Sequence of PMX (Q8IAS0 222-573): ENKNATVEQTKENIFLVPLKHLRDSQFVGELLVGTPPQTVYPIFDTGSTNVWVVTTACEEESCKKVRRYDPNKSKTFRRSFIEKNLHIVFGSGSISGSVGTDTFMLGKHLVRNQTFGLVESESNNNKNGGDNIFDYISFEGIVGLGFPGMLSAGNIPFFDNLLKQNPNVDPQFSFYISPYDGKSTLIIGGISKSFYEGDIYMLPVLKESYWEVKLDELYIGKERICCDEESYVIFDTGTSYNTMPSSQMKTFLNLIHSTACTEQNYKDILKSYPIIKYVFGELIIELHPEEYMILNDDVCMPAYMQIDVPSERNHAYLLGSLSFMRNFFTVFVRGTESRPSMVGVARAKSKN

## CCC1(CC)CC(=O)N([C@H]2c3cc(C(=O)N[C@@H]4c5ccccc5C[C@H]4O)ccc3O[C@@]2(C)COC)C(=N)N1 [Example 75A, (2R,3S)-3-(4,4-diethyl-2-imino-6-oxotetrahydropyrimidin-1(2H)-yl)-N-((1R,2R)-2-hydroxy-2,3-dihydro-1H-inden-1-yl)-2-(methoxymethyl)-2-methyl-2,3-dihydrobenzofuran-5-carboxamide]
PbmCherryLuci
  sterile protection from reinfection: 100%
parasite
  EC50: 0.4 nM
[1]; 300 mg/kg
  mice protected: 8 mice
[1]; 500 mg/kg
  mice protected: 10/11
[1]; lower doses (below 300 mg/kg)
  detection of parasites in the blood: large delays in the detection of parasites in the blood

## CC(C)C[C@H](NC(=O)[C@H]1O[C@@H]1C(=O)O)C(=O)NCCCCN=C(N)N [Example E64, reference compound]
PMIX [2]; treated parasites/merozoites, processed forms p82 and p69, unprocessed p87
  RAP1 processing by PMIX and SUB1: processed normally by PMIX and SUB1
PMIX [2]; treated parasites, p47 processed, p87 full-length
  Apical Sushi Protein (ASP) processing by PMIX: processed into a 47 kDa polypeptide (p47)
PMIX [3]
  PMIX processing to 55 kDa (p55) protein: not inhibited
PMX
  SERA5 processing: does not affect SERA5 processing
